Results as given in patent publication US9133181B2, “Substituted 6-(4-hydroxy-phenyl)-1H-pyrazolo[3,4-b]pyridine derivatives as kinase inhibitors” (SANOFI, priority 2012, dated 2015).

Molecular target: T1, human full-length recombinant PKC βII (Homo sapiens, UniProt P05771)
T1 construct: Active human full-length recombinant PKC βII; purchased Invitrogen GmbH, Darmstadt, Germany
Experiment: Determination of PKC βII inhibition (Caliper mobility shift kinase assay)
Type: biochemical
Details: final compound concentration 1.14 μM (±0.15 μM); 60 min incubation at 32° C.
Method: Determination of PKC βII Inhibition
PKC βII inhibition was determined according to the following protocol:
Active human full-length recombinant PKC βII and the peptide substrate, Fluorescein-RFARKGSLRQKNV, were purchased from Invitrogen GmbH, Darmstadt, Germany. Adenosine-5′-triphosphate (ATP), bovine serum albumine (BSA), dimethylsulphoxide (DMSO), 4-(2-hydroxyethyl)piperazine-1-ethanesulfonic acid (Hepes), Triton X-100, 1,2-Dioleoyl-sn-glycerol (DAG), L-α-Phosphatidyl-L-serine (PS), calcium chloride (CaCl2), and Pluronic F-68 were purchased from Sigma-Aldrich, Munich, Germany. Magnesium chloride, 1 M sodium hydroxide solution, 1M hydrochloric acid solution and EDTA were obtained from Merck Biosciences, Darmstadt, Germany.
Test compounds were diluted to three times the test concentration in buffer 1 (30 mM Hepes-NaOH, pH 7.4, 0.01% Pluronic F-68 and 3% (v/v) DMSO). The […] enzyme was diluted to a concentration of 30 ng/ml in buffer 2 (30 mM Hepes-NaOH, pH 7.4, 15 mM MgCl2, 150 μM CaCl2, 150 μg/ml PS, 60 μg/ml DAG, and 0.045% (w/v) Triton X-100). The peptide substrate and ATP were diluted to concentrations of 3 μM and 120 μM, respectively, in buffer 2. Two μl of the compound solution were mixed with 2 μl of the diluted enzyme in a 384-well small volume microtiter plate (Greiner, Bio-One, Frickenhausen, Germany), and the kinase reaction was initiated by addition of 2 μl of the solution containing peptide substrate and ATP. After 60 min incubation at 32° C., the reaction was stopped by addition of 20 μl of a solution containing 130 mM Hepes-NaOH, pH 7.4, 0.0195% (v/v) Brij-35, 6.5 mM EDTA, 0.13% chip coating reagent 3 (Caliper Lifescience Inc, Hopkinton, Mass.) and 6.5% (v/v) DMSO. Phosphorylation of the substrate peptide was then detected on a Caliper 3000 instrument essentially as described by Pommereau et al (J. Biomol. Screening 2004, 9(5), 409-416). Separation conditions were as follows: Pressure −0.8 psi, upstream voltage −3000 V, downstream voltage −800 V. Positive controls (buffer 1 instead of compound) and negative controls (buffer 1 instead of compound and buffer 2 instead of kinase solution) were run in parallel on each plate. Fractional turnover (R) was determined as the height of the peak of the phosphorylated peptide product divided by the sum of the unphosphorylated substrate and phosphorylated product peak heights. Percent-inhibition values for the test compounds were determined using the formula % Inhibition=100*(1−(Rcompound−Rnegative control)/(Rpositive control−Rnegative control).
In the following table % inhibition values observed with example compounds at a final concentration of 1.14 μM (±0.15 μM) are listed: […]

T1 sequence (P05771 1-673 isoform P05771-2): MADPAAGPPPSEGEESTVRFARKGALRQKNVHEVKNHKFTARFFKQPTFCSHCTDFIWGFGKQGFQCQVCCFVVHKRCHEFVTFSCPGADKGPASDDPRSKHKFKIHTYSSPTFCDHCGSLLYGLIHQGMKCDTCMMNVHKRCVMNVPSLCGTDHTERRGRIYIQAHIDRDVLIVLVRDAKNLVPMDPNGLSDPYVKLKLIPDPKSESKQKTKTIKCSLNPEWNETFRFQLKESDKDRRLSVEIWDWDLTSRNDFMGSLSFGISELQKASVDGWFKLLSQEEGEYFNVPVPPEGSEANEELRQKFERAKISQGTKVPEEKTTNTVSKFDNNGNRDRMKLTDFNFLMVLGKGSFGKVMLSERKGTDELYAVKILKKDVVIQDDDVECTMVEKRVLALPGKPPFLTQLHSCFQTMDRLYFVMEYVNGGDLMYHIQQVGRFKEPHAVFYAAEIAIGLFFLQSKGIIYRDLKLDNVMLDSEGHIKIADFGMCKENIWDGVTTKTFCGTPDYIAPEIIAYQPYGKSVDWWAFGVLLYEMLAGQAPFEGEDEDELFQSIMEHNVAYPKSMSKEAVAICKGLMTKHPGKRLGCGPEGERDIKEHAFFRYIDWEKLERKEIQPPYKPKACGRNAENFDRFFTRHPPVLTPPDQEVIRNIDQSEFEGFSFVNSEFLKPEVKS

| SMILES | inhibition at 1.14 µM [%] |
| --- | --- |
| Cc1n[nH]c2nc(-c3ccc(O)cc3F)cc(CN3CC(C)(C)NCC3(C)C)c12 [Example 28, 3-Fluoro-4-[3-methyl-4-(2,2,5,5-tetramethyl-piperazin-1-ylmethyl)-1H-pyrazolo[3,4-b]pyridin-6-yl]-phenol] | 97 |
| CC[C@@H]1CN(Cc2cc(-c3ccc(O)cc3F)nc3[nH]nc(C)c23)[C@@H](C)CN1 [Example 30, 4-[4-((2S,5R)-5-Ethyl-2-methyl-piperazin-1-ylmethyl)-3-methyl-1H-pyrazolo[3,4-b]pyridin-6-yl]-3-fluoro-phenol] | 97 |
| CCC1(C)CNC(C)(C)CN1Cc1cc(-c2ccc(O)cc2F)nc2[nH]nc(C)c12 (centres unmarked) [Example 31, 4-[4-(2-Ethyl-2,5,5-trimethyl-piperazin-1-ylmethyl)-3-methyl-1H-pyrazolo[3,4-b]pyridin-6-yl]-3-fluoro-phenol] | 101 |
| CCC1(CC)CNC(C)(C)CN1Cc1cc(-c2ccc(O)cc2F)nc2[nH]nc(C)c12 [Example 32, 4-[4-(2,2-Diethyl-5,5-dimethyl-piperazin-1-ylmethyl)-3-methyl-1H-pyrazolo[3,4-b]pyridin-6-yl]-3-fluoro-phenol] | 101 |
| Cc1n[nH]c2nc(-c3ccc(O)cc3F)cc(CN3CC(C)(C)NCC3(C)C3CC3)c12 (centres unmarked) [Example 34, 4-[4-(2-Cyclopropyl-2,5,5-trimethyl-piperazin-1-ylmethyl)-3-methyl-1H-pyrazolo[3,4-b]pyridin-6-yl]-3-fluoro-phenol] | 73 |
| Cc1n[nH]c2nc(-c3ccc(O)cc3F)cc(CN3CC4(CCCC4)NCC3C)c12 (centres unmarked) [Example 35, 3-Fluoro-4-[3-methyl-4-(8-methyl-6,9-diaza-spiro[4.5]dec-9-ylmethyl)-1H-pyrazolo[3,4-b]pyridin-6-yl]-phenol] | 78 |
| Cc1n[nH]c2nc(-c3ccc(O)cc3F)cc(CN3CC4(CCCC4)NCC3(C)C)c12 [Example 36, 4-[4-(8,8-Dimethyl-6,9-diaza-spiro[4.5]dec-9-ylmethyl)-3-methyl-1H-pyrazolo[3,4-b]pyridin-6-yl]-3-fluoro-phenol] | 94 |
| Cc1n[nH]c2nc(-c3ccc(O)cc3)cc(CN3CCNCC3c3ccccc3)c12 (centres unmarked) [Example 41, 4-[3-Methyl-4-(2-phenyl-piperazin-1-ylmethyl)-1H-pyrazolo[3,4-b]pyridin-6-yl]-phenol] | 93 |
| Cc1n[nH]c2nc(-c3ccc(O)cc3)cc(CN3CCNCC3c3ccc(F)cc3)c12 (centres unmarked) [Example 42, 4-{4-[2-(4-Fluoro-phenyl)-piperazin-1-ylmethyl]-3-methyl-1H-pyrazolo[3,4-b]pyridin-6-yl}-phenol] | 94 |
| Cc1n[nH]c2nc(-c3ccc(O)cc3)cc(CN3CCNCC3c3ccc(C(F)(F)F)cc3)c12 (centres unmarked) [Example 44, 4-{3-Methyl-4-[2-(4-trifluoromethyl-phenyl)-piperazin-1-ylmethyl]-1H-pyrazolo[3,4-b]pyridin-6-yl}-phenol] | 38 |
| Cc1n[nH]c2nc(-c3ccc(O)cc3)cc(CN3CCNCC3c3ccc(C(C)C)cc3)c12 (centres unmarked) [Example 45, 4-{4-[2-(4-Isopropyl-phenyl)-piperazin-1-ylmethyl]-3-methyl-1H-pyrazolo[3,4-b]pyridin-6-yl}-phenol] | 54 |
| CCC1(NCc2cc(-c3ccc(O)cc3)nc3[nH]nc(C)c23)CCCNC1 (centres unmarked) [Example 46, 4-{4-[(3-Ethyl-piperidin-3-ylamino)-methyl]-3-methyl-1H-pyrazolo[3,4-b]pyridin-6-yl} phenol] | 90 |
| Cc1n[nH]c2nc(-c3ccc(O)cc3F)cc(CN3CCNC(C)(C)C3)c12 [Example 55, 4-[4-(3,3-Dimethyl-piperazin-1-ylmethyl)-3-methyl-1H-pyrazolo[3,4-b]pyridin-6-yl]-3-fluoro-phenol] | 86 |
| Cc1n[nH]c2nc(-c3ccc(O)cc3F)cc(CN3CC(C)(C)OCC3(C)C)c12 [Example 56, 3-Fluoro-4-[3-methyl-4-(2,2,5,5-tetramethyl-morpholin-4-ylmethyl)-1H-pyrazolo[3,4-b]pyridin-6-yl]-phenol] | 85 |
| CCC1(CC)CN(Cc2cc(-c3ccc(O)c(F)c3)nc3[nH]nc(C)c23)C(C)(C)CN1 [Example 58, 4-[4-(5,5-Diethyl-2,2-dimethyl-piperazin-1-ylmethyl)-3-methyl-1H-pyrazolo[3,4-b]pyridin-6-yl]-2-fluoro-phenol] | 91 |

Now from value to compound:

| inhibition at 1.14 µM [%] | SMILES |
| --- | --- |
| 93 | Cc1n[nH]c2nc(-c3ccc(O)cc3)cc(CN3CC4(CCCC4)NCC3C)c12 (centres unmarked) [Example 33, 4-[3-Methyl-4-(8-methyl-6,9-diaza-spiro[4.5]dec-9-ylmethyl)-1H-pyrazolo[3,4-b]pyridin-6-yl]-phenol] |
| 94 | Cc1n[nH]c2nc(-c3ccc(O)cc3F)cc(CN3CC(C)(C)NCC3C(C)C)c12 (centres unmarked) [Example 37, 3-Fluoro-4-[4-(2-isopropyl-5,5-dimethyl-piperazin-1-ylmethyl)-3-methyl-1H pyrazolo[3,4-b]pyridin-6-yl]-phenol] |
| 99 | Cc1n[nH]c2nc(-c3ccc(O)cc3F)cc(CN3CC(C)(C)NCC3C)c12 (centres unmarked) [Example 38, 3-Fluoro-4-[3-methyl-4-(2,5,5-trimethyl-piperazin-1-ylmethyl)-1H-pyrazolo[3,4-b]pyridin-6-yl]-phenol] |
| 100 | CCC1CNC(C)(C)CN1Cc1cc(-c2ccc(O)cc2F)nc2[nH]nc(C)c12 (centres unmarked) [Example 39, 4-[4-(2-Ethyl-5,5-dimethyl-piperazin-1-ylmethyl)-3-methyl-1H-pyrazolo[3,4-b]pyridin-6-yl]-3-fluoro-phenol] |
| 97 | Cc1n[nH]c2nc(-c3ccc(O)cc3)cc(CN3CCNCC34CC4)c12 [Example 40, 4-[4-(4,7-Diaza-spiro[2.5]oct-4-ylmethyl)-3-methyl-1H-pyrazolo[3,4-b]pyridin-6-yl]-phenol] |
| 101 | Cc1n[nH]c2nc(-c3ccc(O)cc3)cc(CN3CCNCC34CCCC4)c12 [Example 47, 4-[4-(6,9-Diaza-spiro[4.5]dec-6-ylmethyl)-3-methyl-1H-pyrazolo[3,4-b]pyridin-6-yl]-phenol] |
| 99 | Cc1n[nH]c2nc(-c3ccc(O)cc3)cc(CN3CC(C)NCC3(C)C)c12 (centres unmarked) [Example 48, 4-[3-Methyl-4-(2,2,5-trimethyl-piperazin-1-ylmethyl)-1H-pyrazolo-[3,4-b]pyridin-6-yl]-phenol] |
| 95 | Cc1n[nH]c2nc(-c3ccc(O)cc3)cc(CN3CC(C)(C)NCC3(C)C)c12 [Example 49, 4-[3-Methyl-4-(2,2,5,5-tetramethyl-piperazin-1-ylmethyl)-1H-pyrazolo[3,4-b]pyridin-6-yl]-phenol] |
| 96 | CCC1(C)CNC(C)(C)CN1Cc1cc(-c2ccc(O)cc2)nc2[nH]nc(C)c12 (centres unmarked) [Example 50, 4-[4-(2-Ethyl-2,5,5-trimethyl-piperazin-1-ylmethyl)-3-methyl-1H-pyrazolo[3,4-b]pyridin-6-yl]-phenol] |
| 98 | CCC1(CC)CNC(C)(C)CN1Cc1cc(-c2ccc(O)cc2)nc2[nH]nc(C)c12 [Example 51, 4-[4-(2,2-Diethyl-5,5-dimethyl-piperazin-1-ylmethyl)-3-methyl-1H-pyrazolo[3,4-b]pyridin-6-yl]-phenol] |
| 91 | Cc1n[nH]c2nc(-c3ccc(O)cc3)cc(CN3CC(C)(C)NCC3C)c12 (centres unmarked) [Example 52, 4-[3-Methyl-4-(2,5,5-trimethyl-piperazin-1-ylmethyl)-1H-pyrazolo[3,4-b]pyridin-6-yl]-phenol] |
| 99 | CCC1CNC(C)(C)CN1Cc1cc(-c2ccc(O)cc2)nc2[nH]nc(C)c12 (centres unmarked) [Example 53, 4-[4-(2-Ethyl-5,5-dimethyl-piperazin-1-ylmethyl)-3-methyl-1H-pyrazolo[3,4-b]pyridin-6-yl]-phenol] |
| 98 | Cc1n[nH]c2nc(-c3ccc(O)cc3)cc(CN3C[C@@H](C)NC[C@@H]3C)c12 [Example 54, 4-[4-((2S,5R)-2,5-Dimethyl-piperazin-1-ylmethyl)-3-methyl-1H-pyrazolo[3,4-b]pyridin-6-yl]-phenol] |
| 93 | CCC1(C)CN(Cc2cc(-c3ccc(O)cc3)nc3[nH]nc(C)c23)C(C)(C)CN1 (centres unmarked) [Example 57, 4-[4-(5-Ethyl-2,2,5-trimethyl-piperazin-1-ylmethyl)-3-methyl-1H-pyrazolo[3,4-b]pyridin-6-yl]-phenol] |
